# Where “and” joins values, the source holds several entries; their conditions need not be identical. Equal entries are not always repeated. Where two headings read alike, the source gives them in different places.
# Assays:
# MCF-7 cells [1] = test: Annexin V/PI staining flow cytometry; type: cell-based; conditions: MCF-7, treated at IC50, 48 h; for late apoptosis: AV+/PI+; for early apoptosis: AV+/PI−; for apoptotic cell death (total): control 0.68%
# Procedure: MCF-7 breast cancer cells were seeded into 6-well culture plates (3–5 × 10^5 cells/well) and incubated for 24 h. […] After that, the collection of the media supernatants and the cells was performed before undergoing rinsing with ice-cold PBS. The cells were suspended in 100 µL of annexin-binding buffer solution “25 mM CaCl2, 1.4 M NaCl, and 0.1 M Hepes/NaOH, pH 7.4” and incubated with “Annexin V-FITC solution (1:100) and propidium iodide (PI)” at a concentration equal 10 µg/mL in the dark for 30 min. Stained cells were then obtained by a Cytoflex FACS machine, and data analysis was performed using cytExpert software.
# [2] = test system: MCF-10A normal breast cells; test: MTT cytotoxicity assay on MCF-10A; type: cell-based; conditions: Homo sapiens, 48 h, n = 3, read-out: IC50 ± SD, MCF-10A
# Procedure: (§1) Both breast cancer (MCF-7) and normal breast (MCF-10A) cells were purchased from National Research Institute, Egypt, and maintained in complete media of RPMI-1640 medium L-Glutamine (Lonza Verviers SPRL, Belgium, cat#12-604F). Cells were incubated following standard tissue culture work. Cell viability was measured 48 h later, utilizing MTT colorimetric assay (Promega, Madison, WI, USA). Absorbance was consequently assessed (at 570 nm) using an ELISA microplate reader (BIO-RAD, model iMark, Tokyo, Japan). Using GraphPad Prism 7, the IC50 values were determined, and the viability at each concentration was determined in comparison to the control.
# Casp-8 = test: RT-PCR gene expression in MCF-7 cells; type: cell-based; conditions: MCF-7, IC50, 48 h, normalized to β-actin, untreated = 1
# Procedure: (§2) Furthermore, to explore the apoptotic pathway, gene expression of proapoptotic genes (P53, Bax, Caspapses-3,8,9) and antiapoptotic gene (Bcl-2) was evaluated using routine RT-PCR in the untreated and treated MCF-7 cells. Ct values were calculated to determine the relative genes expression in all samples by normalization to β-actin (housekeeping gene).
# Casp-9 = test: RT-PCR gene expression in MCF-7 cells; type: cell-based; conditions: MCF-7, IC50, 48 h, normalized to β-actin, untreated = 1
# Procedure: as §2
# Casp-3 = test: RT-PCR gene expression in MCF-7 cells; type: cell-based; conditions: MCF-7, IC50, 48 h, normalized to β-actin, untreated = 1
# Procedure: as §2
# Bcl-2 = test: RT-PCR gene expression in MCF-7 cells; type: cell-based; conditions: MCF-7, IC50, 48 h, normalized to β-actin, untreated = 1
# Procedure: as §2
# P53 = test: RT-PCR gene expression in MCF-7 cells; type: cell-based; conditions: MCF-7, IC50, 48 h, normalized to β-actin, untreated = 1
# Procedure: as §2
# Bax = test: RT-PCR gene expression in MCF-7 cells; type: cell-based; conditions: MCF-7, IC50, 48 h, normalized to β-actin, untreated = 1
# Procedure: as §2
# MCF-7 cancer cells = test: MTT cytotoxicity assay on MCF-7; type: cell-based; conditions: for LogIC50 MCF-7: Figure 4 curve fit, cell viability vs. log [conc. µM]; for IC50: MTT assay, 48 h, n = 3, NA: Non-Active, read-out: IC50 ± SD, MCF-7
# Procedure: as §1
# MCF-7 cells [3] = test: DNA content flow cytometry cell cycle analysis; type: cell-based; conditions: MCF-7 after treatment
# EGFR Kinase = biological target: T1, EGFR Kinase (Homo sapiens, UniProt P00533); test: EGFR Kinase Assay Kit (BPS Bioscience); type: biochemical; conditions: mean ± SD of three replicates, five concentrations
# T1 construct: purchased BPS Bioscience 40321
# T1 sequence (P00533 25-1210): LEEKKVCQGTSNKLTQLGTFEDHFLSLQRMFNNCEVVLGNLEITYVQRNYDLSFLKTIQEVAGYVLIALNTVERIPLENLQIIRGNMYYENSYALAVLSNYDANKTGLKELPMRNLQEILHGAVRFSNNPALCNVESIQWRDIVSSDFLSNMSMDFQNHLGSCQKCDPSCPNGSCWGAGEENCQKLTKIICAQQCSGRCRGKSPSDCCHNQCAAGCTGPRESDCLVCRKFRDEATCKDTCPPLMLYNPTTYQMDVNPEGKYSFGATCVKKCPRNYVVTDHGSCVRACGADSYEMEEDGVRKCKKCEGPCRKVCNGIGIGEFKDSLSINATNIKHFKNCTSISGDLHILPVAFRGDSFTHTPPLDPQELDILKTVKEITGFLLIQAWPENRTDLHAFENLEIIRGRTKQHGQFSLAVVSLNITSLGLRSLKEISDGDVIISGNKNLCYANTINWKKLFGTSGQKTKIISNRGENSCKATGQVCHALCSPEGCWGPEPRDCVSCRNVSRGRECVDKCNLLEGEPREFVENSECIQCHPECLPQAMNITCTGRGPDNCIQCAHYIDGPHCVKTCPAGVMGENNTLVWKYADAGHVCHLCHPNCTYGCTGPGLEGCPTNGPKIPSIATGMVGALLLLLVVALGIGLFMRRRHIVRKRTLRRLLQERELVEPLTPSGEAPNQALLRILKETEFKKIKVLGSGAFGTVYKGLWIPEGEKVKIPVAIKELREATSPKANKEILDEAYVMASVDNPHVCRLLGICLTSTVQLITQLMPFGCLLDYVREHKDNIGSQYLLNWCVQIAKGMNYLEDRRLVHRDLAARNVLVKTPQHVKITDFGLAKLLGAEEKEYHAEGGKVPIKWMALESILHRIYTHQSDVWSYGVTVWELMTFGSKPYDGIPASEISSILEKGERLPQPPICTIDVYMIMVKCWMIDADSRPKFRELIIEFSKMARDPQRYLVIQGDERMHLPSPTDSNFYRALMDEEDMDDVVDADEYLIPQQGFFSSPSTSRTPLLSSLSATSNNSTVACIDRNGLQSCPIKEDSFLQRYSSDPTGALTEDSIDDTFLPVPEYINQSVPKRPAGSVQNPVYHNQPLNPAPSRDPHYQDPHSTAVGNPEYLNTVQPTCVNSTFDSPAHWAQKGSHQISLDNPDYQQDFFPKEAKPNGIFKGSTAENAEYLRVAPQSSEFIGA
# Procedure: (§3) Compounds’ autophosphorylation percentage inhibition was computed according to the following equation: […] , then IC50 values were calculated using GraphPad prism software.
# HER2 Kinase = biological target: T2, HER2 Kinase (Homo sapiens, UniProt P04626); test: HER2 Kinase Assay Kit (BPS Bioscience); type: biochemical; conditions: mean ± SD of three replicates, five concentrations
# T2 construct: purchased BPS Bioscience 40721
# T2 sequence (P04626 23-1255): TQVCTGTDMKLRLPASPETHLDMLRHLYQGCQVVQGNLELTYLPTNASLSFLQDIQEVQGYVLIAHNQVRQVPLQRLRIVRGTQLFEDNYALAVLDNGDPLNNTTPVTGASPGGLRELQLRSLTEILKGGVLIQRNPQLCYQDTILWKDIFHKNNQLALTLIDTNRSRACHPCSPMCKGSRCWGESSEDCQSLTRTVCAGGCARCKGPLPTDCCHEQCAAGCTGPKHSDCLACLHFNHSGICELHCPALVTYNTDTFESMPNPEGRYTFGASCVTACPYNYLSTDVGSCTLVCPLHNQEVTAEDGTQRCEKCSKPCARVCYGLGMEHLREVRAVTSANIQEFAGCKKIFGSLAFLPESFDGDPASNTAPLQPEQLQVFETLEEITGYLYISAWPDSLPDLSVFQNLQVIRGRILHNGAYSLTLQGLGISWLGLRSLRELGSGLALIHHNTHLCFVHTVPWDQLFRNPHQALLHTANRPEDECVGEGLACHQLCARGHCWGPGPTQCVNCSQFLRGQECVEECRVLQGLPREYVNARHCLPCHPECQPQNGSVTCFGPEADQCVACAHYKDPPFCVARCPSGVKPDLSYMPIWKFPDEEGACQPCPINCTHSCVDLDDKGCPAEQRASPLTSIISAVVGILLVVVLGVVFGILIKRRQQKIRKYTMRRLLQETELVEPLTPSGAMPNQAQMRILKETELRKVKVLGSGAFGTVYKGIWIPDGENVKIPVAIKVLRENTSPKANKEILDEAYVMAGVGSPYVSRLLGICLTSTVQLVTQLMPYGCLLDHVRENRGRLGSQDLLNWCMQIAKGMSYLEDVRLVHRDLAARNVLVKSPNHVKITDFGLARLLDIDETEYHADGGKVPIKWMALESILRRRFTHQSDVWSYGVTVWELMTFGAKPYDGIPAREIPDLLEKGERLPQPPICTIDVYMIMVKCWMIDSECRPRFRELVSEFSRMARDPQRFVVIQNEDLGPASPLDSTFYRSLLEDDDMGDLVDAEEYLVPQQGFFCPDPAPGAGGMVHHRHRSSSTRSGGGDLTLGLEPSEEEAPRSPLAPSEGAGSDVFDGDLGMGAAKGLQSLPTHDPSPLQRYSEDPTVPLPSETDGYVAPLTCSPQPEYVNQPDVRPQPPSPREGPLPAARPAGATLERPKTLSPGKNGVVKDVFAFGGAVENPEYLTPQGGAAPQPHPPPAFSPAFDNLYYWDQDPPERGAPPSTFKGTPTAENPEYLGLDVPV
# Procedure: as §3
# mutant EGFR (L858R) = test system: mutant EGFR (L858R); parameters: method as in PMID 35427766; conditions: allosteric inhibitor; cited from earlier work
# EGFR = test system: EGFR; parameters: method as in PMID 33872924; conditions: reported phenylthiazole derivative; cited from earlier work
# [4] = test system: MCF-7 cells (Xenograft model); type: in vivo, mice; conditions: 10 mg/kg BW, IP
# Source text: In vivo experiments for lethal dose (LD50), experimental design, tumor mass, blood parameters, histopathological examinations were accomplished as previously described. After inoculating the tumor cells, masses of the solid tumor started to appear ten days later. […] Animals from each group were sacrificed, and their blood was drawn to measure hemoglobin (Hb), red blood cell (RBC), white blood cell (WBC), and liver enzymes (ALT, AST, albumin, and total protein) levels.
# [5] = type: in vivo
# Source text: In vivo experiments for lethal dose (LD50), experimental design, tumor mass, blood parameters, histopathological examinations were accomplished as previously described. After inoculating the tumor cells, masses of the solid tumor started to appear ten days later. […]. Animals from each group were sacrificed, and their blood was drawn to measure hemoglobin (Hb), red blood cell (RBC), white blood cell (WBC), and liver enzymes (ALT, AST, albumin, and total protein) levels.
SMILES,late apoptosis (MCF-7 cells [1]) [%],early apoptosis (MCF-7 cells [1]) [%],apoptotic cell death (total) (MCF-7 cells [1]) [%],IC50 [2] [µM],"Fold Change = 2^−ΔΔCT, Casp-8 (Casp-8)","Fold Change = 2^−ΔΔCT, Casp-9 (Casp-9)","Fold Change = 2^−ΔΔCT, Casp-3 (Casp-3)","Fold Change = 2^−ΔΔCT, Bcl-2 (Bcl-2)","Fold Change = 2^−ΔΔCT, P53 (P53)","Fold Change = 2^−ΔΔCT, Bax (Bax)",LogIC50 MCF-7 (MCF-7 cancer cells),"IC50 (MCF-7 cancer cells; Homo sapiens, MCF7, 48 h) [µM]",IC50 (MCF-7 cancer cells) [µM],IC50 (EGFR Kinase) [µM],other results
"COc1ccc(C2=NN(c3nc(-c4ccc(F)cc4)cs3)C(c3ccc(Cl)cc3)C2)cc1OC (stereo not shown) [Compound 6k, 2-(5-(4-Chlorophenyl)-3-(3,4-dimethoxyphenyl)-4,5-dihydro-1H-pyrazol-1-yl)-4-(4-fluorophenyl)thiazole]",14.38,8.06,22.44,≥ 50,3.91 fold and 3.91 ± 0.42 fold,6.07 fold and 6.07 ± 0.23 fold,5.79 fold and 5.79 ± 0.4 fold,0.41 fold and 0.41 ± 0.09 fold,3.91 fold and 3.91 ± 0.50 fold,5.24 fold and 5.24 ± 0.4 fold,0.9042,8.02,8.02 ± 0.98,0.014 ± 0.001,"percentage of cells in the G2/M phase (MCF-7 cells [3]; printed 'reduced by', control 9.7%): 2.01%; IC50 (HER2 Kinase): 0.027 ± 0.002 µM"
O=C(Nc1nccs1)C(c1cc(F)ccc1O)N1Cc2ccccc2C1=O (stereo not shown) [EAI045],,,,,,,,,,,,,,,IC50 (mutant EGFR (L858R)): 0.019 µM
COc1ccc(-c2csc(NC(=O)CSc3nc(-c4ccc(OC)cc4)c(C#N)c(=O)[nH]3)n2)cc1 [VI],,,,,,,,,,,,,,,IC50 (EGFR): 0.19 µM
"COc1ccc(C2CC(c3ccc(OC)c(OC)c3)=NN2c2nc(-c3ccccc3)cs2)cc1 (stereo not shown) [Compound 6e, 2-(3-(3,4-Dimethoxyphenyl)-5-(4-methoxyphenyl)-4,5-dihydro-1H-pyrazol-1-yl)-4-phenylthiazole]",18.52,9.47,27.99,≥ 50,1.71 fold and 1.71 ± 0.18 fold,8.19 fold and 8.19 ± 0.32 fold,7.12 fold and 7.12 ± 0.53 fold,0.22 ± 0.06 fold,4.85 ± 0.4 fold,6.39 fold and 6.39 ± 0.8 fold,0.862,7.28,7.21 ± 0.48,0.009 ± 0.001,"percentage of cells in the S phase (MCF-7 cells [3]; control 34.18): 44.52%; tumor inhibition ratio ([4]; seven administrations): 52.46%; tumor volume ([4]; decreased from 89.8): 28.4 mm^3; mice weight ([5]; 10 mg/kg BW, IP, MCF-7 control 32.28 g, normal 24.5 g): 28.23 g; histopathological examination of liver sections ([5]; mouse, in vivo): normal nuclei morphology in most of the cells with slight hydrophobic degeneration"

# Reference: paper PMC9607164, “Rational Design, Synthesis and Biological Evaluation of Novel Pyrazoline-Based Antiproliferative Agents in MCF-7 Cancer Cells” (Pharmaceuticals, 2022)
